Test results as given in ChEMBL document CHEMBL2021870, “Saponins can perturb biologic membranes and reduce the surface tension of aqueous solutions: a correlation?” (Bioorg Med Chem, 2012).

Columns and labels:
ECV-304 [1] = assay: Cytotoxicity against human ECV304 cells after 72 hrs by Hoechst 33258 staining based fluorescence assay; type: functional, cell-based; conditions: ECV-304, 72 h
ECV-304 [2] = assay: Membranolytic activity in human ECV304 cells assessed as leakage of intracellular lactate dehydrogenase after 2 hrs by spectrophotometry; type: functional, cell-based; conditions: ECV-304, 2 h
[3] = Reduction in surface tension in 0.1 M PBS after 10 mins by Wilhelmy plate method using tensitometer; type: physicochemical
[4] = Critical micellar concentration of the compound in 0.1 M PBS after 10 mins by Wilhelmy plate method using tensitometer; type: physicochemical; conditions: buffer

| Compound | IC50 (ECV-304 [1]) | IC50 (ECV-304 [2]) | EC50 at 10 min [3] | CMC [4] |
| --- | --- | --- | --- | --- |
| C[C@@H]1O[C@@H](O[C@H]2[C@H](O[C@H]3CC[C@@]4(C)[C@@H](CC[C@]5(C)[C@@H]4CC=C4[C@@H]6CC(C)(C)CC[C@]6(C(=O)O)CC[C@]45C)[C@]3(C)CO)OC[C@H](O)[C@@H]2O)[C@H](O)[C@H](O)[C@H]1O [ALPHA-HEDERIN] | 35 µM | 29 µM | 4 µM | 13 µM |
| CC[C@H](CC[C@@H](C)[C@H]1CC[C@H]2[C@@H]3CC=C4C[C@@H](O)CC[C@]4(C)[C@H]3CC[C@]12C)C(C)C [BETA-SITOSTEROL] | 61 µM | 472 µM | 19 µM | 241 µM |
| C[C@@H]1CC[C@@]2(OC1)O[C@H]1[C@@H](O)[C@H]3[C@@H]4CC[C@H]5C[C@@H](O[C@@H]6O[C@H](CO)[C@H](O[C@@H]7O[C@H](CO)C(O)[C@H](O[C@@H]8OC[C@@H](O)[C@H](O)[C@H]8O)[C@H]7O[C@@H]7O[C@H](CO)[C@H](O)[C@H](O[C@@H]8O[C@H](CO)[C@@H](O)[C@H](O)[C@H]8O)[C@H]7O)[C@H](O)[C@H]6O)[C@H](O)C[C@]5(C)[C@H]4CC[C@]3(C)[C@H]1[C@@H]2C (some centres undefined) [DIGITONIN] | 13 µM | 15 µM | 8 µM | 163 µM |
| CC1(C)[C@@H](O)CC[C@]2(C)[C@H]3C(=O)C=C4[C@@H]5C[C@@](C)(C(=O)O)CC[C@]5(C)CC[C@@]4(C)[C@]3(C)CC[C@@H]12 [ENOXOLONE] | 101 µM | 292 µM | 16 µM | 106 µM |
| CC(C)=CCC[C@](C)(O)[C@H]1CC[C@]2(C)[C@@H]1[C@H](O)C[C@@H]1[C@@]3(C)CC[C@H](O)C(C)(C)[C@@H]3[C@@H](O[C@@H]3O[C@H](CO)[C@@H](O)[C@H](O)[C@H]3O[C@@H]3O[C@@H](C)[C@H](O)[C@@H](O)[C@H]3O)C[C@]12C [GINSENOSIDE RG2] | > 127 µM | 783 µM | 25 µM | > 127 µM |
| C[C@@H]1O[C@@H](O[C@H]2[C@H](O[C@H]3CC[C@@]4(C)[C@@H](CC[C@]5(C)[C@@H]4CC=C4[C@@H]6CC(C)(C)CC[C@]6(C(=O)O[C@@H]6O[C@H](CO[C@@H]7O[C@H](CO)[C@@H](O[C@@H]8O[C@@H](C)[C@H](O)[C@@H](O)[C@H]8O)[C@H](O)[C@H]7O)[C@@H](O)[C@H](O)[C@H]6O)CC[C@]45C)[C@]3(C)CO)OC[C@H](O)[C@@H]2O)[C@H](O)[C@H](O)[C@H]1O [KALOPANAXSAPONIN B] | > 164 µM | > 164 µM | 10 µM | 82 µM |
